From patent US20030017976A1, “Therapeutic properties of liposome-encapsulated immunomodulators” (priority 1998, published 2003)

Key:
[1] = system: peritoneal exudate macrophages (PEM); experiment: Nitrite (NO) production by mouse peritoneal exudate macrophages; type: cell-based; conditions: PEM with 50 umol/well MLV (0.1 mg JBT3002/300 μM phospholipid) in the presence of 2 mM NMA
Description: Peritoneal exudate macrophages (PEM) were collected by peritoneal lavage from mice given an intraperitoneal injection of 2.0 ml of thioglycollate broth (Baltimore Biological Laboratory, Cockeysville, Md.) 4 days before harvest (Dong Z, O'Brian C A, et al. J Leukoc Biol (1993) 53:53-60; Xie K, Huang S, et al. Cancer Res (1995) 55:3123-31). The PEM were washed in Ca^+2- an Mg^2+-free HBSS and resuspended in serum-free medium: 1×10^5 cells were plated into each 38-mm^2 well of 96-2311 culture plates (Falcon Plastics, Oxnard, Calif.). After a 90-min incubation, the nonadherent cells were removed by washing with medium. More than 98% of the adherent cell populations were macrophages according to morphology and phagocytic criteria (Saiki I, et al. J Immunol (1985) 135:684-8). […] After treatment, the cultures were washed and macrophage-mediated cytotoxicity against different tumor targets was determined. […]
Nitrite accumulation in the culture supernatant was measured in a colorimetric assay as described previously (Ding A E, et al. J Immunol (1988) 141:2407-12). […] The mixtures were incubated 10 min with shaking, and A540 was measured with the use of a microplate reader (Model 3550; Bio-Rad Corp., San Francisco, Calif.). The concentration of nitrite was determined by comparing it with a standard solution of sodium nitrite in medium.

tumor cells = experiment: Macrophage-mediated tumor cytotoxicity, target cells not named; type: cell-based; conditions: PEM with 50 umol/well MLV (0.1 mg JBT3002/300 μM phospholipid) in the presence of 2 mM NMA
Description: Cytotoxicity was assayed by measuring release of radioactivity from target cell DNA as described previously (Dong Z, et al. J Exp Med (1993) 177:1071-7). Briefly, tumor target cells in their exponential growth phase were incubated in medium containing 0.25 μCi/ml of [^3H]TdR (sp. Act. 2 Ci/mmol) (ICN Biomedicals, Inc., Irvine, Calif.) for 24 h. The cells were washed three times with HBSS to remove unbound radioactivity and then harvested by trypsinization (0.25% trypsin in 0.02% EDTA), washed, and resuspended in medium. Cells were plated (at 1×10^4/well) into wells containing control or test macrophages to achieve an E/T cell ratio of 10:1. At this density, macrophages incubated in medium (control) were not cytotoxic to neoplastic cells (Weinstein SL, et al. Proc Natl Acad Sci USA (1991) 88:4148-52; Dong Z, et al. JLeukoc Biol (1993) 53:53-60). […] The lysate was harvested with harvester 96 (Tomtec, Orange, Conn.) and counted for residual radioactivity in a liquid scintillation counter. Macrophage-mediated cytotoxicity was calculated as follows: […]
Efficient activation of macrophages by LPS requires priming by IFN-γ (Saiki I, et al. J Immunol (1985) 135:684-8). […] Tumor cytotoxicity was measured 72 h after the addition of radiolabeled tumor cells to the activated macrophages. […]

K-1735 M2 cells = experiment: Macrophage-mediated cytotoxicity against K-1735 M2 cells; type: cell-based, mouse; conditions: PEM activated by JBT3002
[2] = system: PEM (TNF-α, IL-1α, IL-6, NO); experiment: Cytokine and nitrite production by PEM (ELISA, Griess); type: cell-based, mouse; conditions: PEM treated with LPS or MLV-JBT3002, genistein 100 μM, PD-98059 10 μM, calphostin-C 250 nM
Description: Peritoneal exudate macrophages (PEM) were collected by peritoneal lavage from mice given an intraperitoneal injection of 1.5 ml of thioglycollate broth (Baltimore Biological Laboratory, Cockeysville, Md.) 4 days before harvest.(Saiki I, et al. J Immunol (1985) 135:684 688; Dong Z, et a.l J Leukoc Biol (1993) 53:53-60; Dong Z, J et al. J Exp Med (1993) 177:1071-1077) The PEM were washed in CA^2+- and MG^2+-free HBSS and resuspended in serum-free medium: 1×10^5 cells were plated into each 38-mm^2 well of 96-well culture plates (Falcon Plastics, Oxnard, Calif.). After a 90-minute incubation, the nonadherent cells were removed by washing them with medium. More than 98% of the adherent cell populations were macrophages according to morphology and phagocytic criteria. (Saiki I, et al. J Immunol (1985) 135:684 688)
PEM in 96-well plates at a density of 10^5 cells/well/200 μl of medium were treated as indicated in Results. The culture supernatants were harvested and used immediately for the cytokine assays or stored at −70° C. For cell lysates, supernatants were removed and macrophages were frozen-thawed in fresh medium. Specific cytokines in the supernatants or cell lysates (diluted at 1:5 or 1:10) were measured by ELISA kits according to manufacturer's instructions.
The nitrite concentration in culture supernatants was determined by a microplate assay as described previously. Briefly, 50-μl samples harvested from PEM-conditioned medium were treated with an equal volume of Griess reagent (1% sulfanilamide, 0.1% naphthylene diamine dihydrochloride, and 2.5% H3PO4) at room temperature for 10 minutes. The absorbance at 540 nm was monitored with a microplate reader. The nitrite concentration was determined using sodium nitrite as a standard.

Row | effect of kinase inhibitor on production of NO [2] | effect of kinase inhibitor on production of TNF-α ([2]; H-89) | Structure (SMILES) | NO [1] [µM] | tumor cytotoxicity (tumor cells) [%] | minimal inhibition dose (K-1735 M2 cells) [µM]
1 |  |  | CNC(=N)NCCC[C@H](N)C(=O)O [NMA, N^G-monomethyl-L-arginine] | 1.6 | 1.3 | 
2 | significantly inhibited | significantly inhibited | O=c1c(-c2ccc(O)cc2)coc2cc(O)cc(O)c12 [genistein, Genistein] |  |  | 30 to 40
